The values below come from patent publication US11603373B2, “TDO2 and IDO1 inhibitors” (Genentech, Inc., priority 2017, dated 2023).

Structures are written as SMILES.

Assay [1] addresses T1, TDO2 (SW48 cells, high TDO expressing cells) (Homo sapiens, UniProt P48775).
T1 construct: SW48 cells (high TDO expressing cells); endogenous in cells; host or cells: SW48 cells
Description: NFK GreenScreen cell assay, inhibition of TDO in SW48 cells. The class given is cell-based. Particulars: read-out: TDO2 Cell Fluor EC50. From the text: (§1) Cells are counted on a Vi-Cell (Beckman Coulter). […] The final DMSO concentration is 0.5%.

The target in assay [2] is T2, IDO1 (A172+IFNg cells, high IDO expressing cells) (Homo sapiens, UniProt P14902).
T2 construct: A172+IFNg cells (high IDO expressing cells); endogenous in cells; host or cells: A172 cells induced with 100 ng/ml IFNγ
Description: NFK GreenScreen cell assay, inhibition of IDO in A172+IFNg cells. It counts as cell-based. Particulars: read-out: IDO cell Fluor EC50.
Excerpt: as §1

In general, EC50 refers to the midpoint of the concentration-response curve.

T1 sequence (P48775 whole entry): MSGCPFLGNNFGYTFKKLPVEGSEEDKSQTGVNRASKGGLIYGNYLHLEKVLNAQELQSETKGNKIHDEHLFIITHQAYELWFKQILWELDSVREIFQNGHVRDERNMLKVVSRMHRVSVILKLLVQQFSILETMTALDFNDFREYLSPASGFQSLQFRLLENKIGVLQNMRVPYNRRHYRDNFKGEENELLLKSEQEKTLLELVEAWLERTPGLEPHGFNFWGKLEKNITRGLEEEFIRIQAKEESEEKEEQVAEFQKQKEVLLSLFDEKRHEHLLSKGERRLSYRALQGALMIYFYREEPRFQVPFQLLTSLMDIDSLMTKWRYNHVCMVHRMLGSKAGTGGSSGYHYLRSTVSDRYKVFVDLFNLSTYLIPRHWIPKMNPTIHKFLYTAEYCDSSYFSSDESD
T2 sequence (P14902 whole entry): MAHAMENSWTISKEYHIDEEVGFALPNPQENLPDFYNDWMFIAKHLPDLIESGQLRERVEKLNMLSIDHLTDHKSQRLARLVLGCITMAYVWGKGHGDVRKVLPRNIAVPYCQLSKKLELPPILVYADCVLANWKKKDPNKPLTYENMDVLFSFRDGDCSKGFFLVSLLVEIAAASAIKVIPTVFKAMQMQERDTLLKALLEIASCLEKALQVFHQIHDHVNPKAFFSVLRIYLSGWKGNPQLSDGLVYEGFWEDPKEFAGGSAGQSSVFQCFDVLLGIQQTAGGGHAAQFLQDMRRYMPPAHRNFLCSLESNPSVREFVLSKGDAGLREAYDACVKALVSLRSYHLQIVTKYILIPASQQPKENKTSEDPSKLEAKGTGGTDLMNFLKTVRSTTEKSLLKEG

`CC(C)S(=O)(=O)N1CCC2(CC1)C[C@@H]([C@H]1c3ccccc3-c3cncn31)[C@H]2O` [compound 29, 2-(5H-imidazo[1,5-b]isoindol-5-yl)-7-isopropylsulfonyl-7-azaspiro[3.5]nonan-3-ol]: the EC50 in assay [1] was 240 nM; in assay [2], 59 nM.
For the compound `NC(=O)N1CCC(C(=O)N2CCC3(CC2)CC(C2c4ccccc4-c4cncn42)C3O)CC1` (stereo not shown) [compound 66, 4-[3-hydroxy-2-(5H-imidazo[1,5-b]isoindol-5-yl)-7-azaspiro[3.5]nonane-7-carbonyl]piperidine-1-carboxamide], the results for the EC50 in assay [1] and in assay [2] were 14000 nM and 13000 nM, respectively.
`CC(C)(C)OC(=O)N1[C@@H]2CC[C@H]1C[C@@]1(C[C@@H]([C@H]3c4ccccc4-c4cncn43)[C@H]1O)C2` (single isomer, unassigned) [Example 12b]: the EC50 in assay [1] was determined as 21000 nM; in assay [2] it was 8100 nM.
For `O=C(CC1CCOCC1)N1CCC2(CC1)CC(C1c3ccccc3-c3cncn31)C2O` (stereo not shown) [compound 51, 1-[3-hydroxy-2-(5H-imidazo[1,5-b]isoindol-5-yl)-7-azaspiro[3.5]nonan-7-yl]-2-tetrahydropyran-4-yl-ethanone], the EC50 in assay [1] came to 220 nM; in assay [2] it was 390 nM.
Taken in the same sequence, the figures for `COCCOC(=O)N1CCC2(CC[C@@H]([C@H]3c4ccccc4-c4cncn43)[C@H]2O)CC1` (single isomer, unassigned) [Example 19] were 94 nM and 99 nM.
With `CC(=O)N1CCC2(CC[C@H]([C@@H]3c4ccccc4-c4cncn43)[C@@H]2O)CC1` (single isomer, unassigned) [Example 10b], the EC50 in assay [1] is 170 nM; in assay [2], 240 nM.
As to `Cc1ccncc1S(=O)(=O)N1CCC2(CC1)C[C@@H]([C@H]1c3ccccc3-c3cncn31)[C@H]2O` [compound 32, (1R,2S)-2-((S)-5H-imidazo[5,1-a]isoindol-5-yl)-7-((4-methylpyridin-3-yl)sulfonyl)-7-azaspiro[3.5]nonan-1-ol], the EC50 came out at 300 nM in assay [1] and 49 nM in assay [2].
Consider `O=C(C(F)F)N1CCC2(CC1)CC(C1c3ccccc3-c3cncn31)C2O` (stereo not shown) [compound 69, 2,2-difluoro-1-[3-hydroxy-2-(5H-imidazo[1,5-b]isoindol-5-yl)-7-azaspiro[3.5]nonan-7-yl]ethanone], for which the figures for the EC50 in assay [1] and in assay [2] were 370 nM and 350 nM, respectively.
With `CC(C)(C)OC(=O)N[C@H]1CC[C@@]2(CC1)C[C@H]([C@@H]1c3ccccc3-c3cncn31)[C@H]2O` (single isomer, unassigned) [Example 24a], the figures for the EC50 in assay [1] and in assay [2] were 6900 nM and 4400 nM, respectively.
As to `CC(C)(C)OC(=O)N1CC2CCC(C1)C21C[C@@H]([C@H]2c3ccccc3-c3cncn32)[C@@H]1O` (stereo partly drawn) [Example 22h, tert-butyl (2′S,3′S)-2′-hydroxy-3′-((S)-5H-imidazo[5,1-a]isoindol-5-yl)-3-azaspiro[bicyclo[3.2.1]octane-8,1′-cyclobutane]-3-carboxylate], the EC50 in assay [1] was determined as 4000 nM; in assay [2], 2800 nM.
For the compound `CC(C)(C)OC(=O)N1CC2CCC(C1)C21C[C@H]([C@H]2c3ccccc3-c3cncn32)[C@H]1O` (stereo partly drawn) [Example 22f, tert-butyl (2′R,3′R)-2′-hydroxy-3′-((S)-5H-imidazo[5,1-a]isoindol-5-yl)-3-azaspiro[bicyclo[3.2.1]octane-8,1′-cyclobutane]-3-carboxylate], the EC50 in assay [1] came out at 1400 nM; in assay [2], 92 nM.
Regarding `CS(=O)(=O)N1CC2(CCC(C3c4ccccc4-c4cncn43)C2O)C1` (single isomer, unassigned) [compound 16, 6-(5H imidazo[5,1-a]isoindol-5-yl)-2-(methylsulfonyl)-2-azaspiro[3.4]octan-5-ol], the EC50 in assay [1] was 95 nM; in assay [2], 220 nM.
The corresponding values for `CS(=O)(=O)N1CCC2(CC1)C[C@H]([C@@H]1c3ccccc3-c3cncn31)[C@@H]2O` (single isomer, unassigned) [Example 6a] are 400 nM and 5900 nM.
Turning to `CS(=O)(=O)N1CCC2(CC1)C[C@H]([C@H]1c3ccccc3-c3cncn31)[C@@H]2O` (single isomer, unassigned) [Example 6f], the EC50 in assay [1] is 120 nM; in assay [2], 24 nM.
Consider `O=C(C1CCOC1)N1CCC2(CC1)C[C@@H]([C@H]1c3ccccc3-c3cncn31)[C@H]2O` (stereo partly shown) [compound 46, [3-hydroxy-2-(5H-imidazo[1,5-b]isoindol-5-yl)-7-azaspiro[3.5]nonan-7-yl]-tetrahydrofuran-3-yl-methanone], for which the EC50 amounted to 2400 nM in assay [1] and 2000 nM in assay [2].
`CC(C)(C)OC(=O)N1[C@@H]2CC[C@H]1C[C@]1(C[C@H]([C@@H]3c4ccccc4-c4cncn43)[C@@H]1O)C2` [Example 12a, tert-butyl (1R,2′S,3r,3′R,5S)-2′-hydroxy-3′-((R)-5H-imidazo[5,1-a]isoindol-5-yl)-8-azaspiro[bicyclo[3.2.]octane-3,1′-cyclobutane]-8-carboxylate]: the EC50 in assay [1] was found to be 1200 nM; in assay [2], 920 nM.
Taken in the same sequence, the figures for `CC(C)(C)OC(=O)N1[C@@H]2CC[C@H]1C[C@@]1(C[C@@H]([C@@H]3c4ccccc4-c4cncn43)[C@H]1O)C2` (single isomer, unassigned) [Example 12d] were 9800 nM and 4300 nM.
Regarding `N#CCS(=O)(=O)N1CCC2(CC1)C[C@H]([C@@H]1c3ccccc3-c3cncn31)[C@@H]2O` [Example 21c, (2R,3S)-2-[[3-hydroxy-2-((5R)-5H-imidazo[1,5-b]isoindol-5-yl)-7-azaspiro[3.5]nonan-7-yl]sulfonyl]acetonitrile], the EC50 in assay [1] was determined as 5900 nM; in assay [2], 4800 nM.
`CC(C)(C)OC(=O)N1CC2(CC[C@H]([C@@H]3c4ccccc4-c4cncn43)[C@@H]2O)C1` (single isomer, unassigned) [Example 3b]: the EC50 in assay [1] amounted to 72 nM; in assay [2], 1100 nM.
In the case of `NC(=O)N1CCCC(C(=O)N2CCC3(CC2)CC(C2c4ccccc4-c4cncn42)C3O)C1` (stereo not shown) [compound 64, 3-[3-hydroxy-2-(5H-imidazo[1,5-b]isoindol-5-yl)-7-azaspiro[3.5]nonane-7-carbonyl]piperidine-1-carboxamide], the EC50 in assay [1] turned out to be 13000 nM; in assay [2], 17000 nM.
As to `NS(=O)(=O)N1CCC2(CC1)C[C@H]([C@@H]1c3ccccc3-c3cncn31)[C@@H]2O` (single isomer, unassigned) [Example 11a], the EC50 in assay [1] amounted to 660 nM; in assay [2], 20000 nM.
The corresponding values for `CC(C)(C)OC(=O)N1[C@@H]2CC[C@H]1C[C@@]1(C[C@@H]([C@@H]3c4ccccc4-c4cncn43)[C@@H]1O)C2` (single isomer, unassigned) [Example 12m] are 15000 nM and 2000 nM.
The corresponding values for `CC(C)(C)OC(=O)N[C@H]1CC[C@]2(CC1)C[C@H]([C@H]1c3ccccc3-c3cncn31)[C@@H]2O` (single isomer, unassigned) [Example 24n] are 1100 nM and 240 nM.
As to `COC(=O)N1CCC2(CC[C@H]([C@@H]3c4ccccc4-c4cncn43)[C@@H]2O)CC1` (single isomer, unassigned) [Example 9b], the results for the EC50 in assay [1] and in assay [2] were 100 nM and 130 nM, respectively.
Taken in the same sequence, the figures for `CC(C)(C)OC(=O)N1CC2CCC(C1)C21C[C@H]([C@@H]2c3ccccc3-c3cncn32)[C@H]1O` (stereo partly drawn) [Example 22g, tert-butyl (2′R,3′R)-2′-hydroxy-3′-((R)-5H-imidazo[5,1-a]isoindol-5-yl)-3-azaspiro[bicyclo[3.2.1]octane-8,1-cyclobutane]-3-carboxylate] were 160 nM and 41 nM.
In the case of `CC(C)(C)OC(=O)N[C@H]1CC[C@@]2(CC1)C[C@@H]([C@@H]1c3ccccc3-c3cncn31)[C@H]2O` (single isomer, unassigned) [Example 24d], the EC50 is 2500 nM in assay [1] and 1100 nM in assay [2].
Consider `CC(C)(C)OC(=O)N[C@H]1CC[C@@]2(CC1)C[C@H]([C@@H]1c3ccccc3-c3cncn31)[C@@H]2O` (single isomer, unassigned) [Example 24p], for which the EC50 in assay [1] worked out at 3300 nM; in assay [2], 920 nM.
The corresponding values for `CC(C)(C)OC(=O)N1CC2(CC[C@@H]([C@@H]3c4ccccc4-c4cncn43)[C@@H]2O)C1` (single isomer, unassigned) [Example 3c] are 14000 nM and 13000 nM.
The corresponding values for `CN1C(=O)Cc2cc(S(=O)(=O)N3CCC4(CC3)CC(C3c5ccccc5-c5cncn53)C4O)ccc21` (stereo not shown) [compound 37, 5-[[3-hydroxy-2-(5H-imidazo[1,5-b]isoindol-5-yl)-7-azaspiro[3.5]nonan-7-yl]sulfonyl]-1-methyl-indolin-2-one] are 1100 nM and 230 nM.
As to `CCC(=O)N1CCC2(CC1)CC(C1c3ccccc3-c3cncn31)C2O` (stereo not shown) [compound 49, 1-[3-hydroxy-2-(5H-imidazo[1,5-b]isoindol-5-yl)-7-azaspiro[3.5]nonan-7-yl]propan-1-one], the figures for the EC50 in assay [1] and in assay [2] were 530 nM and 560 nM, respectively.
In the case of `Cc1nn(C)c(C)c1S(=O)(=O)N1CCC2(CC1)CC(C1c3ccccc3-c3cncn31)C2O` (stereo not shown) [compound 27, 2-(5H-imidazo[1,5-b]isoindol-5-yl)-7-(1,3,5-trimethylpyrazol-4-yl)sulfonyl-7-azaspiro[3.5]nonan-3-ol], the EC50 was found to be 140 nM in assay [1] and 30 nM in assay [2].
Consider `CC(NC=O)C(=O)N1CCC2(CC1)CC(C1c3ccccc3-c3cncn31)C2O` (stereo not shown) [compound 42, N-[2-[3-hydroxy-2-(5H-imidazo[1,5-b]isoindol-5-yl)-7-azaspiro[3.5]nonan-7-yl]-1-methyl-2-oxo-ethyl]formamide], for which the EC50 in assay [1] stood at 4100 nM; in assay [2] it was 1100 nM.
